Data as given in PMC10851555, “Safinamide, an inhibitor of monoamine oxidase, modulates the magnitude, gating, and hysteresis of sodium ion current” (BMC Pharmacology & Toxicology, 2024).

Tested on: voltage-gated sodium ion (NaV) channels in pituitary GH3 cells
Assay: Window INa [INa(W)] induced by ascending ramp voltage (−100 to +40 mV over 200 ms) in GH3 cells
Assay type: cell-based, rat
Details: for ∆G0 for gating of INa(W) activation at 0 mV: control 6.78 ± 1.1, ∆G0 = q × F × V1/2, n = 7
Source text: The sigmoidal relationship between Vramp-induced INa(W) and the upsloping Vramp (nonlinear current–voltage relationship) was investigated and fitted with the Boltzmann function as follows: [drawing 2]
where V is the membrane potential in millivolts, Erev is the reversal potential of INa, G is the INa conductance in nanosiemens, I is the current, Vh is the voltage at which half-maximal activation or inactivation of the current occurs, q is the apparent gating charge, F is Faraday’s constant, R is the universal gas constant, and T is the absolute temperature.
The free energy ∆G0 for the gating of INa(W) was determined by assuming a two-state gating model [equilibrium between closed (resting) and open states] of the NaV channel. The ∆G0 for the activation of INa(W) at 0 mV could be calculated as follows: q × F × V1/2 [45, 46]. The standard errors in ∆G0 ( [drawing 3] ) could be calculated as follows: […]
In the present study, we investigated whether the addition of SAF to GH3 cells modulates the magnitude of INa(W) induced by ascending Vramp. Test cells were maintained at −80 mV and subjected to Vramp ascending from −100 to +40 mV over 200 ms (i.e., ramp speed of 0.7 mV/ms) to induce INa(W). […] The ∆area values of INa(W) in the absence and presence of SAF and SAF plus Ran were calculated (Fig. 7B).
Fig. 7 Stimulatory effects of SAF on window INa [INa(W)] induced by an ascending ramp voltage Vramp in GH3 cells. For the experiments, the test cells were maintained at −80 mV and subjected to Vramp ranging from −100 to +40 mV over 200 ms (ramp speed of 0.7 mV/ms). (A) INa(W) trace in the absence (a, blue) and presence (b, red) of 10 μM SAF. The inset indicates the Vramp protocol, and the downward deflection indicates inward-directed current. The continuous gray lines corresponding to the untreated or SAF-treated (10 μM) cells were fitted (least-squares minimization) with the Boltzmann equation. The values of […] and q (apparent gating charge) induced by ascending Vramp over 200 ms in the absence (blue) of SAF were, respectively, −34 mV and 2.1 e; the corresponding values in the presence (red) of 10 μM SAF were −38 mV and 2.8 e, respectively. (B) Summary graph illustrating the effects of SAF (3 and 10 μM) and SAF (10 μM) plus Ran (10 μM) on the Δarea of INa(W) in GH3 cells (mean ± standard error of the mean; n = 7 for each point). The value of Δarea was measured at a voltage ranging from −80 and +40 mV, which corresponded to INa(W) induced by the ascending Vramp. […] (C) Summary graph illustrating the effects of SAF (3 and 10 μM) and SAF plus Ran (10 μM) on ΔG0 (mean ± standard error of the mean; n = 7 for each point). The estimation of ΔG0 for the induction of instantaneous INa(W) is described in the Materials and Methods section.

`C[C@H](NCc1ccc(OCc2cccc(F)c2)cc1)C(N)=O` [SAF, (S)-2-((4-((3-fluorobenzyl)oxy)benzyl)amino)propanamide] was tested, and the “∆G0 for gating of INa(W) activation at 0 mV” value (3 μM SAF) was 8.81 ± 1.6 kJ/mol, the “q (apparent gating charge) of INa(W)” value (10 μM SAF, absence of SAF 2.1 e) was 2.8 e and the “V1/2 (half-maximal activation voltage) of INa(W) induced by ascending Vramp (Boltzmann fit)” value (10 μM SAF, absence of SAF −34 mV) was −38 mV. The “∆G0 for gating of INa(W) activation at 0 mV” value (10 μM SAF) was 10.36 ± 1.8 kJ/mol and the “amplitude and strength (∆area) of INa(W)” value (within 1 min of SAF exposure) was “sharply increased”.
